Data published in patent US20240150370A1, “BICYCLIC PYRIDINE DERIVATIVE” (Sumitomo Pharma Co., Ltd., priority 0001, published 2024).
Counter-ions that a name gives are not always drawn.

Columns and labels:
human TAAR1 receptor = human TAAR1 receptor (Homo sapiens (Human), UniProt Q96RJ0); assay: Evaluation of agonist activity on human TAAR1 receptor (cAMP assay); type: cell-based; conditions: cAMP in human TAAR1-expressing CHO cells, relative to 100 μM tyramine; for activation at 0.1 µM / activation at 1 µM / activation at 10 µM: CHO, 0.5 h, read-out: TAAR1 agonist activity at each concentration (%); for TAAR1 agonist activity at each concentration (%): dihydrochloride
Chain of human TAAR1 receptor (Q96RJ0 whole entry, the tested form may be a part): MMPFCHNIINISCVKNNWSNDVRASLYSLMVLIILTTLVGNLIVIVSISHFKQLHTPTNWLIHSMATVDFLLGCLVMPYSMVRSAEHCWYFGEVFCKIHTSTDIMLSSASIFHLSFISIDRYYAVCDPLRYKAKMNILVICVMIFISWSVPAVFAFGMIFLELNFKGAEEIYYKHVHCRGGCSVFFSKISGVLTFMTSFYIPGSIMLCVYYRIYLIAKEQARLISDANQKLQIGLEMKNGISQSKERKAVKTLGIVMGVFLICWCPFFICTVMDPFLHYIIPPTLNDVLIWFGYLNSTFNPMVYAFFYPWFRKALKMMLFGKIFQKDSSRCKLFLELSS
Protocol: TAAR1 is a G protein-coupled receptor that binds to G proteins (Gas), and activation of the TAAR1 receptor by agonists induces an increase in intracellular cAMP levels. Therefore, the agonist activity of the sample on the human TAAR1 receptor was evaluated using the cAMP assay method.
cAMP Hunter™ CHO-K1 TAAR1 Gs Cell Line, a cell expressing human TAAR1 receptor, was purchased. Human TAAR1-expressing CHO cells were seeded in a 96-well plate, and after culturing for 24 hours, a sample dissolved in DMSO was added and incubated at 37° C. for 30 minutes. A sample for cAMP measurement was prepared according to the cAMPHiRange kit protocol. The amount of cAMP produced by the sample was measured by time-resolved fluorescence using EnVision (excitation wavelength: 330 nm, fluorescence wavelength […]/665 nm).
Sample %=100×{(Csamp)−(Cblank)}/{(Ctyramine)−(Cblank)} • Csamp: count of sample, Ctyramine: count of 100 μM tyramine, Cblank: count of blank

hERG channel = hERG channel (Homo sapiens (Human), UniProt Q12809); assay: Evaluation of hERG channel inhibitory activity (whole-cell patch clamp, hERG-CHO cells); type: cell-based; conditions: autopatch clamp, read-out: hERG inhibition IC50
Chain of hERG channel (Q12809 whole entry): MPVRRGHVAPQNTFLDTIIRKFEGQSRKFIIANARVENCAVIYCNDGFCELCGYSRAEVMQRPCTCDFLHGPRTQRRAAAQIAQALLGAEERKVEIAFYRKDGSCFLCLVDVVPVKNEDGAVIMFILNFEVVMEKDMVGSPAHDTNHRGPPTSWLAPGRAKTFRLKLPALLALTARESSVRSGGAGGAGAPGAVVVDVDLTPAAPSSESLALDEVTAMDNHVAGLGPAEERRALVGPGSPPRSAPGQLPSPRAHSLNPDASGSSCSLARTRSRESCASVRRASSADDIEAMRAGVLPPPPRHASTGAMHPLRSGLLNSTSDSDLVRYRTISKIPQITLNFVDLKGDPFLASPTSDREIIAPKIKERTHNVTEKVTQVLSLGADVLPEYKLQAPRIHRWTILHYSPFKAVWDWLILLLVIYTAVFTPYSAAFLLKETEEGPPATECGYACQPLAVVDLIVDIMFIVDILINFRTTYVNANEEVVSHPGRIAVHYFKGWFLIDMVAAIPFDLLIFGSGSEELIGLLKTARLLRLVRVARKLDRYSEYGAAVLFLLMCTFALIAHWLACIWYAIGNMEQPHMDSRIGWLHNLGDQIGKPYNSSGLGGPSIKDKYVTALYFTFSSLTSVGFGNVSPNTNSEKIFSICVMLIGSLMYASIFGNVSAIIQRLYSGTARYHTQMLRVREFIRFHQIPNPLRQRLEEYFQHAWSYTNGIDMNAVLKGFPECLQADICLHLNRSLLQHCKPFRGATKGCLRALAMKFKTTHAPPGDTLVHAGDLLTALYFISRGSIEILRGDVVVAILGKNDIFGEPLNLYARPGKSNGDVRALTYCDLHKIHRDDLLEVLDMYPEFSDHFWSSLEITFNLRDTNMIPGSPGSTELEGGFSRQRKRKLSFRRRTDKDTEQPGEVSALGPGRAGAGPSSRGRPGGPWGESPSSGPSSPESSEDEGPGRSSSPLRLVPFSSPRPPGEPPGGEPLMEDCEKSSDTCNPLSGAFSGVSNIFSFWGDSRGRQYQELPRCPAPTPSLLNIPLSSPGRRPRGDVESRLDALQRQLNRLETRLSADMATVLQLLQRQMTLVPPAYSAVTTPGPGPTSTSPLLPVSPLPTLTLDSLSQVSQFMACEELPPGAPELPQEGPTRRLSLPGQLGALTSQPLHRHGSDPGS

| SMILES | activation at 0.1 µM (human TAAR1 receptor; 100 nM) | activation at 1 µM (human TAAR1 receptor; 1000 nM) | activation at 10 µM (human TAAR1 receptor; 10000 nM) | IC50 (hERG channel) | TAAR1 agonist activity at each concentration (%) (human TAAR1 receptor; 100 nM) | TAAR1 agonist activity at each concentration (%) (human TAAR1 receptor; 1000 nM) | TAAR1 agonist activity at each concentration (%) (human TAAR1 receptor; 10000 nM) |
| --- | --- | --- | --- | --- | --- | --- | --- |
| CC[C@H]1Oc2cccnc2[C@@H]1CN (stereo in doubt) [Example 22] | 11% | 56% | 84% | > 100 µM |  |  |  |
| CC[C@@H]1Oc2cccnc2[C@H]1CN (stereo in doubt) [Example 44, rel-1-[(2S,3R)-2-ethyl-2,3-dihydrofuro[3,2-b]pyridin-3-yl]methanamine dihydrochloride] | 13% | 48% | 79% | > 100 µM |  |  |  |
| CNC[C@@H]1C[C@@H](C)Oc2cccnc21 [Example 5, N-methyl-1-[(2R,4S)-2-methyl-3,4-dihydro-2H-pyrano[3,2-b]pyridin-4-yl]methanamine dihydrochloride] |  |  |  | > 100 µM | 24% | 68% | 90% |
| CNC[C@@H]1C[C@H](C)Oc2cccnc21 [Example 6] | 16% | 57% | 75% | > 100 µM |  |  |  |
| C[C@H]1Oc2cc(F)cnc2[C@@H]1CN [Example 8, 1-[(2R,3S)-6-fluoro-2-methyl-2,3-dihydrofuro[3,2-b]pyridin-3-yl]methanamine dihydrochloride] | 24% | 63% | 75% | > 100 µM |  |  |  |
| NCC1CCSc2cccnc21 (centres unmarked) [Example 9] | 15% | 53% | 70% | > 100 µM |  |  |  |
| Cc1ccc2c(n1)C(CN)CS2 (centres unmarked) [Example 11] | 20% | 58% | 79% | > 100 µM |  |  |  |
| Cc1ccc2c(n1)C(CN)CCS2 (centres unmarked) [Example 12] | 21% | 58% | 75% | > 100 µM |  |  |  |
| Cc1ccc2c(n1)[C@H](CN)C[C@@H](C)O2 [Example 18] | 29% | 73% | 87% | > 100 µM |  |  |  |
| CC1(C)Oc2cccnc2C1CN (centres unmarked) [Example 23] | 35% | 74% | 91% | > 100 µM |  |  |  |
| C[C@H]1Oc2cccnc2[C@@H]1CN [Example 27, 1-[(2R,3S)-2-methyl-2,3-dihydrofuro[3,2-b]pyridin-3-yl]methanamine dihydrochloride] | 40% | 81% | 95% | > 100 µM |  |  |  |
| C[C@H]1Oc2ccc(F)nc2[C@@H]1CN [Example 29] | 51% | 93% | 104% | > 100 µM |  |  |  |
| Cc1ccnc2c1O[C@H](C)[C@H]2CN [Example 34, 1-[(2R,3S)-2,7-dimethyl-2,3-dihydrofuro[3,2-b]pyridin-3-yl]methanamine dihydrochloride] | 10% | 48% | 83% | > 100 µM |  |  |  |
| Cc1ccc2c(n1)[C@H](CN)[C@@H](C)O2 [Example 35, 1-[(2R,3S)-2,5-dimethyl-2,3-dihydrofuro[3,2-b]pyridin-3-yl]methanamine] | 57% | 82% | 87% | > 100 µM |  |  |  |
| C[C@H]1Oc2cc(Cl)cnc2[C@@H]1CN [Example 37, 1-[(2R,3S)-6-chloro-2-methyl-2,3-dihydrofuro[3,2-b]pyridin-3-yl]methanamine dihydrochloride] |  | 49% | 72% | > 100 µM | 13% |  |  |
| C[C@H]1Oc2ccc(Cl)nc2[C@@H]1CN [Example 38, 1-[(2R,3S)-5-chloro-2-methyl-2,3-dihydrofuro[3,2-b]pyridin-3-yl]methanamine dihydrochloride] | 52% | 86% | 93% | > 100 µM |  |  |  |
| CNC[C@H]1c2ncccc2O[C@@H]1C [Example 46, N-methyl-1-[(2R,3S)-2-methyl-2,3-dihydrofuro[3,2-b]pyridin-3-yl]methanamine dihydrochloride] | 31% | 70% | 80% | > 100 µM |  |  |  |
| CNC[C@@H]1C[C@@H](C)Oc2ccc(C)nc21 [Example 47] | 13% | 52% | 84% | > 100 µM |  |  |  |
| CNC[C@H]1c2nc(C)ccc2O[C@@H]1C [Example 48] | 38% | 74% | 86% | > 100 µM |  |  |  |
| CNC[C@H]1c2ncc(F)cc2O[C@@H]1C [Example 49, 1-[(2R,3S)-6-fluoro-2-methyl-2,3-dihydrofuro[3,2-b]pyridin-3-yl]-N-methylmethanamine dihydrobromide] | 25% | 63% | 75% | > 100 µM |  |  |  |
| CNC[C@H]1c2ncc(Cl)cc2O[C@@H]1C [Example 50] | 12% | 45% | 63% | > 100 µM |  |  |  |
| CNC[C@H]1c2nccc(C)c2O[C@@H]1C [Example 51] | 10% | 46% | 77% | > 100 µM |  |  |  |
| NCC1c2ncccc2OC12CC2 (centres unmarked) [Example 58] | 36% | 74% | 82% | > 100 µM |  |  |  |
| CNCC1c2nc(C)ccc2OC1(C)C (centres unmarked) [Example 79] | 36% | 77% | 90% | > 100 µM |  |  |  |
| Cc1ccc2c(n1)C(CN)C(C)(C)O2 (centres unmarked) [Example 83] | 59% | 91% | 99% | > 100 µM |  |  |  |
| Cc1cc(C)c2c(n1)[C@H](CN)[C@@H](C)O2 [Example 84] | 15% | 51% | 79% | > 100 µM |  |  |  |
